From DBAASP
Converted amounts (≈) assume the structure as drawn.

How the values were obtained:
Test in all cases: ≥ marks a high value that may be exact or a test limit, other limits are often not marked, values filed in µg/mL are converted to µM
[1] = tested on: Bacillus cereus
[2] = tested on: Staphylococcus aureus
[3] = tested on: Escherichia coli
[4] = tested on: Candida albicans
[5] = tested on: Candida albicans ATCC 90028
[6] = tested on: Escherichia coli ATCC 25922
[7] = tested on: Pseudomonas aeruginosa ATCC 27853
[8] = tested on: Staphylococcus aureus ATCC 29213
[9] = tested on: Staphylococcus aureus ATCC 25923

Row | MIC [1] [µM] | MIC [2] [µM] | MIC [3] [µM] | MIC [4] [µM] | SMILES | further results
1 | 3.73 (≈ 8 µg/mL) | 3.73 (≈ 8 µg/mL) | 7.47 (≈ 16 µg/mL) | – | CC(C)C[C@H](NC(=O)[C@H](CCCCN)NC(=O)[C@H](Cc1ccccc1)NC(=O)[C@@H](NC(=O)[C@H](CCCCN)NC(=O)CNC(=O)[C@H](CC(C)C)NC(=O)[C@@H](N)Cc1ccccc1)C(C)C)C(=O)N[C@@H](C)C(=O)N[C@@H](CO)C(=O)N[C@@H](CCCCN)C(=O)N[C@H](C(=O)N[C@@H](Cc1ccccc1)C(=O)NCC(=O)N[C@@H](C)C(=O)N[C@H](C(=O)N[C@@H](Cc1ccccc1)C(=O)NCC(=O)N[C@@H](CCCCN)C(=O)N[C@H](C(=O)O)C(C)C)C(C)C)C(C)C [FLGKVFKLASKVFGAVFGKV] | –
2 | – | 9.5 (≈ 15.4 µg/mL) | 38.4 (≈ 62.4 µg/mL) | 150 (≈ 244 µg/mL) | CC[C@H](C)[C@H](NC(=O)[C@H](CC(C)C)NC(=O)[C@H](CCCCN)NC(=O)CNC(=O)[C@@H](NC(=O)[C@@H](N)Cc1ccccc1)[C@@H](C)CC)C(=O)N[C@@H](CO)C(=O)N[C@@H](C)C(=O)N[C@@H](C)C(=O)N[C@@H](CO)C(=O)NCC(=O)N[C@@H](CC(C)C)C(=O)N[C@@H](CC(C)C)C(=O)N[C@@H](CO)C(=O)N[C@@H](Cc1cnc[nH]1)C(=O)N[C@@H](CC(C)C)C(N)=O [FIGKLISAASGLLSHL] | –
3 | – | – | – | 133 (≈ 255 µg/mL) | CC(C)C[C@H](NC(=O)CNC(=O)[C@H](C)NC(=O)[C@@H](N)CCCCN)C(=O)N[C@@H](C)C(=O)N[C@@H](Cc1ccccc1)C(=O)N1CCC[C@H]1C(=O)N[C@H](C(=O)NCC(=O)N[C@@H](CCCN=C(N)N)C(=O)N[C@H](C(=O)N[C@@H](Cc1cnc[nH]1)C(=O)N[C@@H](CCCN=C(N)N)C(=O)N[C@@H](CC(C)C)C(=O)N[C@@H](CC(C)C)C(=O)N[C@@H](CCCN=C(N)N)C(=O)N[C@@H](CCCCN)C(=O)O)C(C)C)C(C)C [KAGLAFPVGRVHRLLRK] | –
4 | – | 100 (≈ 264 µg/mL) | 10 (≈ 26.4 µg/mL) | 100 (≈ 264 µg/mL) | CC[C@H](C)[C@H](NC(=O)[C@H](CCCCN)NC(=O)[C@H](CS)NC(=O)[C@H](C)NC(=O)[C@@H](NC(=O)[C@H](Cc1ccccc1)NC(=O)CNC(=O)[C@H](CC(C)C)NC(=O)CNC(=O)[C@@H](NC(=O)[C@H](CCCCN)NC(=O)CNC(=O)[C@H](CC(C)C)NC(=O)[C@H](CC(N)=O)NC(=O)[C@H](CCCCN)NC(=O)[C@H](CC(C)C)NC(=O)[C@@H](NC(=O)[C@H](C)NC(=O)[C@H](CC(C)C)NC(=O)[C@H](CCSC)NC(=O)[C@@H](N)CO)C(C)C)C(C)C)C(C)C)C(=O)N[C@@H](CC(N)=O)C(=O)N[C@@H](CCCCN)C(=O)N[C@@H](CCC(N)=O)C(=O)N[C@@H](CS)C(=O)O [SMLAVLKNLGKVGLGFVACKINKQC] | –
5 | 3.66 (≈ 8 µg/mL) | 3.66 (≈ 8 µg/mL) | 58.6 (≈ 128 µg/mL) | – | CC(C)C[C@H](NC(=O)[C@H](CCCCN)NC(=O)[C@H](Cc1ccccc1)NC(=O)[C@@H](NC(=O)[C@@H](NC(=O)CNC(=O)[C@H](CC(C)C)NC(=O)[C@@H](N)Cc1ccccc1)C(C)C)C(C)C)C(=O)N[C@@H](C)C(=O)N[C@@H](CO)C(=O)N[C@@H](CCCCN)C(=O)N[C@H](C(=O)N[C@@H](Cc1ccccc1)C(=O)N[C@@H](CCCCN)C(=O)N[C@@H](C)C(=O)N[C@H](C(=O)N[C@@H](Cc1ccccc1)C(=O)NCC(=O)N[C@@H](CCCCN)C(=O)N[C@H](C(=O)O)C(C)C)C(C)C)C(C)C [FLGVVFKLASKVFKAVFGKV] | –
6 | ≥ 122 | > 122 | > 122 | – | CC(C)C[C@H](NC(=O)[C@@H](N)Cc1ccccc1)C(=O)NCC(=O)N[C@H](C(=O)N[C@H](C(=O)N[C@@H](Cc1ccccc1)C(=O)N[C@@H](CCCCN)C(=O)NCC(=O)N[C@@H](C)C(=O)N[C@@H](CO)C(=O)N[C@@H](CCCCN)C(=O)N[C@H](C(=O)N[C@@H](Cc1ccccc1)C(=O)N1CCC[C@H]1C(=O)N[C@@H](C)C(=O)N[C@H](C(=O)N[C@@H](Cc1ccccc1)C(=O)NCC(=O)N[C@@H](CCCCN)C(=O)N[C@H](C(=O)O)C(C)C)C(C)C)C(C)C)C(C)C)C(C)C [FLGVVFKGASKVFPAVFGKV] | –
7 | – | – | – | – | CC[C@H](C)[C@H](NC(=O)[C@H](CCCN=C(N)N)NC(=O)[C@H](CCCCN)NC(=O)[C@@H](NC(=O)[C@H](CCCCN)NC(=O)[C@H](CCCN=C(N)N)NC(=O)[C@@H](N)CCCCN)C(C)C)C(=O)N[C@@H](CCCCN)C(=O)N[C@@H](CCCCN)C(=O)N[C@@H](Cc1ccccc1)C(=O)N[C@@H](CC(C)C)C(=O)N[C@@H](CCCN=C(N)N)C(=O)O [KRKVKRIKKFLR] | MIC [5]: 1.25 µM (≈ 2 µg/mL); MIC [6]: 0.625 µM (≈ 1 µg/mL); MIC [7]: 2.5 µM (≈ 4 µg/mL); MIC [8]: 20 µM (≈ 32 µg/mL)
8 | – | 100 (≈ 262 µg/mL) | 20 (≈ 52.4 µg/mL) | 100 (≈ 262 µg/mL) | CC[C@H](C)[C@H](NC(=O)[C@H](CCCCN)NC(=O)[C@H](CO)NC(=O)[C@H](C)NC(=O)[C@@H](NC(=O)[C@H](Cc1ccccc1)NC(=O)CNC(=O)[C@H](CC(C)C)NC(=O)CNC(=O)[C@@H](NC(=O)[C@H](CCCCN)NC(=O)CNC(=O)[C@H](CC(C)C)NC(=O)[C@H](CC(N)=O)NC(=O)[C@H](CCCCN)NC(=O)[C@H](CC(C)C)NC(=O)[C@@H](NC(=O)[C@H](CO)NC(=O)[C@H](CC(C)C)NC(=O)[C@H](CCSC)NC(=O)[C@@H](N)CO)C(C)C)C(C)C)C(C)C)C(=O)N[C@@H](CC(N)=O)C(=O)N[C@@H](CCCCN)C(=O)N[C@@H](CCC(N)=O)C(=O)N[C@@H](CO)C(=O)O [SMLSVLKNLGKVGLGFVASKINKQS] | –
9 | – | – | – | 2.5 (≈ 4.41 µg/mL) | CC(=O)N[C@@H](CCCCN)C(=O)N[C@@H](Cc1ccc(O)cc1)C(=O)N[C@H](C(=O)NCC(=O)N[C@@H](CCCCN)C(=O)N[C@@H](CS)C(=O)N[C@@H](Cc1ccc(O)cc1)C(=O)N[C@@H](CCCCN)C(=O)N[C@@H](CCCCN)C(=O)N[C@@H](CCCCN)C(=O)N[C@@H](CC(N)=O)C(=O)N[C@@H](CCC(=O)O)C(=O)N[C@@H](CS)C(=O)N[C@@H](CCCCN)C(N)=O)[C@@H](C)O [KYTGKCYKKKNECK] | –
10 | ≥ 124 | – | > 124 | – | CC[C@H](C)[C@H](NC(=O)[C@H](CCCCN)NC(=O)[C@H](Cc1ccccc1)NC(=O)[C@H](CC(C)C)NC(=O)[C@@H]1CCCN1C(=O)[C@H](CO)NC(=O)[C@@H]1CCCN1C(=O)[C@@H](NC(=O)[C@@H](NC(=O)[C@H](C)NC(=O)[C@@H](NC(=O)CNC(=O)[C@H](CCCCN)NC(=O)CNC(=O)[C@H](C)NC(=O)[C@H](CCCN=C(N)N)NC(=O)[C@H](CCCCN)NC(=O)[C@@H](N)C(C)C)C(C)C)C(C)C)C(C)C)C(=O)N[C@H](C(=O)N[C@H](C(=O)O)C(C)C)C(C)C [VKRAGKGVAVVPSPLFKIVV] | –
11 | ≥ 123 | – | 30.7 (≈ 64 µg/mL) | – | CC[C@H](C)[C@H](NC(=O)[C@@H](NC(=O)[C@H](CCCCN)NC(=O)[C@H](C)NC(=O)[C@H](CC(C)C)NC(=O)[C@H](CCCCN)NC(=O)[C@H](CCCCN)NC(=O)CN)[C@@H](C)O)C(=O)N[C@@H](C)C(=O)N[C@@H](CCCCN)C(=O)N[C@@H](CCC(=O)O)C(=O)N[C@H](C(=O)N[C@@H](C)C(=O)N[C@@H](CCCCN)C(=O)N[C@@H](CCC(N)=O)C(=O)NCC(=O)N[C@@H](C)C(=O)N[C@@H](CCCCN)C(=O)N[C@@H](Cc1ccccc1)C(=O)N[C@@H](C)C(=O)O)C(C)C [GKKLAKTIAKEVAKQGAKFA] | –
12 | ≥ 131 | – | > 131 | – | CC[C@H](C)[C@H](NC(=O)[C@@H](NC(=O)[C@H](C)NC(=O)[C@@H]1CCCN1C(=O)[C@@H](NC(=O)[C@@H](NC(=O)[C@H](CCCCN)NC(=O)[C@H](CO)NC(=O)[C@H](C)NC(=O)[C@H](CC(C)C)NC(=O)[C@H](CO)NC(=O)CNC(=O)[C@@H](NC(=O)[C@@H](NC(=O)CNC(=O)[C@@H](N)CC(C)C)C(C)C)C(C)C)C(C)C)C(C)C)C(C)C)C(=O)N[C@@H](CO)C(=O)N[C@@H](CCCCN)C(=O)N[C@H](C(=O)N[C@@H](CCCCN)C(=O)O)C(C)C [LGVVGSLASKVVPAVISKVK] | –
13 | – | – | – | – | CC[C@H](C)[C@@H]1NC(=O)[C@H](CCCCN)NC(=O)[C@@H](NC(=O)[C@H](CCCCN)NC(=O)[C@H](CC(C)C)NC(=O)[C@H](CCCCN)NC(=O)[C@H](CC(=O)O)NC(=O)[C@H](CC(C)C)NC(=O)[C@H](CCSC)NC(=O)[C@H](CCC(N)=O)NC(=O)CNC(=O)[C@H](C)NC(=O)[C@H](CC(C)C)NC(=O)[C@H](CC(N)=O)NC(=O)[C@H](CCCCN)NC(=O)[C@H](C)NC(=O)[C@H](C)NC(=O)[C@H](CC(N)=O)NC(=O)[C@H](CCCCN)NC(=O)[C@@H](NC(=O)[C@@H](NC(=O)[C@H](CC(=O)O)NC(=O)[C@H](CCSC)NC(=O)[C@H](CC(C)C)NC(=O)CN)[C@@H](C)O)C(C)C)CSSC[C@@H](C(=O)O)NC(=O)[C@H](CO)NC(=O)CNC(=O)[C@H]([C@@H](C)O)NC1=O [GLMDTVKNAAKNLAGQMLDKLKCKITGSC] | MIC [5]: ≥ 100 µM; MIC [6]: 50 µM (≈ 153 µg/mL); MIC [9]: > 200 µM
14 | ≥ 61.3 | > 123 | 15.3 (≈ 32 µg/mL) | – | CC(C)C[C@H](NC(=O)[C@@H](N)Cc1ccccc1)C(=O)NCC(=O)N[C@@H](CCCCN)C(=O)N[C@H](C(=O)N[C@@H](Cc1ccccc1)C(=O)N[C@@H](CCCCN)C(=O)NCC(=O)N[C@@H](C)C(=O)N[C@@H](CO)C(=O)N[C@@H](CCCCN)C(=O)N[C@H](C(=O)N[C@@H](Cc1ccccc1)C(=O)NCC(=O)N[C@@H](C)C(=O)N[C@H](C(=O)N[C@@H](Cc1ccccc1)C(=O)NCC(=O)N[C@@H](CCCCN)C(=O)N[C@H](C(=O)O)C(C)C)C(C)C)C(C)C)C(C)C [FLGKVFKGASKVFGAVFGKV] | –
15 | – | – | – | 30.8 (≈ 35.2 µg/mL) | NCCCC[C@H](NC(=O)[C@H](CCC(=O)O)NC(=O)[C@@H](N)CC(=O)O)C(=O)NCC(=O)N1CCC[C@H]1C(=O)N[C@@H](CCCCN)C(=O)N[C@@H](Cc1c[nH]c2ccccc12)C(=O)N[C@@H](CCCCN)C(=O)N[C@@H](CCCN=C(N)N)C(=O)O [DEKGPKWKR] | –
